Results as given in patent publication US4734418A, “Quinazoline compounds and antihypertensives” (priority 1984, dated 1988).
Like-named read-outs stand apart in the source and are kept apart here.

How the values were obtained:
[1] = tested on: Spontaneously Hypertensive Rats; assay: Test 1: antihypertensive effects (systolic tail artery blood pressure) and heart rate in spontaneously hypertensive rats, oral; assay type: in vivo, rat (male, SHR); settings: for change in vivo at 1 mg/kg / change in vivo at 10 mg/kg: Rattus norvegicus; for change in vivo at 1 mg/kg / Change (%) in heart rate: SHR; for Change (%) in heart rate: maximum value; for change in vivo at 10 mg/kg: po
Experimental: The antihypertensive effects of the certain compounds of this invention were studied in the following manner.
Among male, spontaneously hypertensive rats (SHRs) of 20 weeks of age or older and 350-430 g heavy all of which had developed hypertension, those having systolic blood pressures of 180 mmHg or higher were used in groups, each of which was constituted of 3-4 of the rats. […] Besides, heart rates were also measured simultaneously. The compounds were each dissolved or suspended in a 0.5% methylcellulose solution and then administered orally.
*All administered orally at a dosage of 1 mg/Kg except for the compounds
**Each percent change in heart rate is indicated by the corresponding

Mouse = assay: Test 2: acute toxicity, mouse, oral; assay type: in vivo, male ddy-mice; settings: 1 g/Kg P.O., fourteenth day
Experimental: The acute toxicity of certain compounds of this invention were studied in the following manner.
Namely, male ddy-mice of 5 weeks of age and male Wister rats of 8 weeks of age were fasted for 18 hours and used in groups each of which was constituted of 4-5 of mice or rats. The compounds were each dissolved or suspended in a 0.5% methylcellulose solution and administered orally (P.O.). On the fourteenth day after the administration, their toxicity were judged.
Each numeral set indicates the number of dead animals/the number of teste
animals. Hyphens (--) indicate that no tests were effected.

[2] = oral 1 mg/Kg, 1 hour, read-out: Antihypertensive effects, change (%) in blood pressure, 1 hour later
[3] = oral 1 mg/Kg, 3 hours, read-out: Antihypertensive effects, change (%) in blood pressure, 3 hours later
[4] = oral 1 mg/Kg, 6 hours, read-out: Antihypertensive effects, change (%) in blood pressure, 6 hours later
[5] = oral 1 mg/Kg, 24 hours, read-out: Antihypertensive effects, change (%) in blood pressure, 24 hours later

Structure (SMILES)	change in vivo at 1 mg/kg [1, 2] [%]	change in vivo at 1 mg/kg [1, 3] [%]	change in vivo at 1 mg/kg [1, 4] [%]	change in vivo at 1 mg/kg [1, 5] [%]	Change (%) in heart rate ([1]; oral 1 mg/Kg)	Acute Toxicity, number of dead animals/number of tested animals (Mouse)	change in vivo at 10 mg/kg ([1]; 1 h, read-out: Antihypertensive effects, change (%) in blood pressure, 1 hour later) [%]	change in vivo at 10 mg/kg ([1]; 3 h, read-out: Antihypertensive effects, change (%) in blood pressure, 3 hours later) [%]	change in vivo at 10 mg/kg ([1]; 6 h, read-out: Antihypertensive effects, change (%) in blood pressure, 6 hours later) [%]	change in vivo at 10 mg/kg ([1]; 24 h, read-out: Antihypertensive effects, change (%) in blood pressure, 24 hours later) [%]	Change (%) in heart rate ([1]; oral 10 mg/Kg)
COc1cc2nc(N3CCN(c4ncc5c(n4)CN(C(C)C)C5=O)CC3)nc(N)c2cc1OC [Example 25]	-4.3	-23.9	-35.4	-6.7	+12.9%	0/5					
COc1cc2nc(N3CCN(c4ncc5ccccc5n4)CC3)nc(N)c2cc1OC [Example 70]	-7.8	-17.5	-23.3	-4.4	+13.7%	0/4					
CCN1C(=O)Cc2cnc(N3CCN(c4nc(N)c5cc(OC)c(OC)cc5n4)CC3)nc21 [Example 28]	-17.2	-15.3	-31.6	-3.3	+11.7%	0/5					
CCN1C(=O)CCCc2nc(N3CCN(c4nc(N)c5cc(OC)c(OC)cc5n4)CC3)ncc21 [Example 32]	-20.2	-30.5	-35.2	-16.4	+11.0%	0/5					
COc1cc2nc(N3CCN(c4ncc5c(=O)n(Cc6ccccc6)ccc5n4)CC3)nc(N)c2cc1OC [Example 10]	1.5	-14.4	-11.9	-5	+5.2%						
COc1cc2nc(N3CCN(c4ncc5c(=O)n(C6CC6)ccc5n4)CC3)nc(N)c2cc1OC [Example 11]	-0.5	-16.6	-17.1	-6.8	+5.7%						
CCn1ccc2nc(N3CCN(c4nc(N)c5cc(OC)c(OC)c(OC)c5n4)CC3)ncc2c1=O.Cl [Example 81, 4-Amino-6,7,8-trimethoxy-2-(4-(5,6-dihydro-6-ethyl-5-oxopyrido[4,3-d]pyrimidin-2-yl)piperazino)quinazoline hydrochloride]	-0.5	-7.3	-12.1	-8.7	+3.8%						
COc1cc2nc(N3CCN(c4ncc5c(n4)CC(c4ccccc4)NC5=O)CC3)nc(N)c2cc1OC (stereo not drawn) [Example 19]	-2.4	-10.1	-11.1	-2.9	+2.9%						
CCn1ccc2nc(N3CCCN(c4nc(N)c5cc(OC)c(OC)cc5n4)CC3)ncc2c1=O [Example 82, 4-Amino-6,7-dimethoxy-2-(4-(5,6-dihydro-6-ethyl-5-oxopyrido[4,3-d]pyrimidin-2-yl)homopiperazino)quinazoline]	0.5	-6.9	-8.8	-6.4	+5.8%						
COc1cc2nc(N3CCN(c4ncc5c(n4)CN(C4CCCCC4)C5=O)CC3)nc(N)c2cc1OC [Example 91]	-4	-8	-12.9	-2.5	+8.2%						
CCn1cc(C=O)c2nc(N3CCN(c4nc(N)c5cc(OC)c(OC)cc5n4)CC3)ncc2c1=O [Example 14]	-1.9	-4.8	-13.9	-11	+7.3%						
CCOC(=O)c1cnc(N2CCN(c3nc(N)c4cc(OC)c(OC)cc4n3)CC2)nc1N(C)C [Example 56]	-21.4	-22.4	-22.9	-4.5	+13.5%						
CCN(CC)C(=O)c1cnc(N2CCN(c3nc(N)c4cc(OC)c(OC)cc4n3)CC2)nc1OC [Example 52]	-8	-13	-19.5	-3	+3.6%						
COc1cc2nc(N3CCN(c4ncc(C(=O)NCc5ccccc5)c(C)n4)CC3)nc(N)c2cc1OC [Example 44]	9.1	0	-4	0	+7.9%						
CCOC(=O)c1cnc(N2CCN(c3nc(N)c4cc(OC)c(OC)cc4n3)CC2)nc1O [Example 50]	-1.5		-14.6	-6.3	+2.9%						
COc1cc2nc(N3CCN(c4ncc5c(=O)n(-c6ccccc6)ccc5n4)CC3)nc(N)c2cc1OC [Example 9]	-1.5	-8.1	-9.6	-5.1	+4.3%						
CCCN1Cc2nc(N3CCN(c4nc(N)c5cc(OC)c(OC)cc5n4)CC3)ncc2C1=O [Example 26]	-8.8	-15.2	-21.6	-4.9	+9.8%						
COc1cc2nc(N3CCN(c4ncc5c(n4)CCCC5=O)CC3)nc(N)c2cc1OC [Example 33]	-20.4	-27	-32.1	-9.7	+17.5%						
COc1cc2nc(N3CCN(c4ncc5c(n4)CN(CCN(C)C)C5=O)CC3)nc(N)c2cc1OC [Example 86]	0.5	0	-6.4	-0.5	+7.1%						
CCOC(=O)c1cc2nc(N3CCN(c4nc(N)c5cc(OC)c(OC)cc5n4)CC3)ncc2c(=O)n1CC [Example 18]	0	-3.9	-9.8	-3.9	+11.1%						
CCOC(=O)c1cnc(N2CCN(c3nc(N)c4cc(OC)c(OC)cc4n3)CC2)nc1C(=O)OCC [Example 84]	0.5	0	-1.5	-0.5	+2.2%						
CCN(CC)C(=O)c1cnc(N2CCN(c3nc(N)c4cc(OC)c(OC)cc4n3)CC2)nc1SC [Example 53]	-27.9	-31.3	-36.1	-12	+25.7%						
COc1cc2nc(N3CCN(c4ncc([N+](=O)[O-])cc4[N+](=O)[O-])CC3)nc(N)c2cc1OC [Example 92]							1.4	-3.3	-9.4	-6.1	+8.5%
COc1cc2nc(N3CCN(c4ncc(C(=O)Nc5ccccc5)c(C)n4)CC3)nc(N)c2cc1OC [Example 43]	4.5	0.5	-6.5	-9.5	+5.7%						
